From patent publication US7772241B2, “Variolin derivatives and their use as antitumor agents” (Pharma Mar S.A., priority 2001, dated 2010)
Where two headings read alike, the source gives them in different places.

How the values were obtained:
[1] = tested on: HT-29; assay: Inhibition of cells growth by colorimetric (SRB) assay, HT-29; details: for CC50: read-out: HT-29 LC50, SRB assay, 48 hours exposure
Summary of the method: (§1)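 Read-out is sulforhodamine B protein stain (OD 490 nm) after cold TCA fixation, following 48 h continuous exposure to samples spanning 10 to 10^−8 μg/ml.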

[2] = tested on: LoVo-Dox; assay: Inhibition of cells growth by colorimetric (SRB) assay, LoVo-Dox; details: for CC50: read-out: LOVO-DOX LC50, SRB assay, 48 hours exposure
Summary of the method: as §1

[3] = tested on: SK-MEL-28; assay: Inhibition of cells growth by colorimetric (SRB) assay, SK-MEL-28; details: for CC50: read-out: MEL-28 LC50, SRB assay, 48 hours exposure
Summary of the method: as §1

[4] = tested on: IGROV-1; assay: Inhibition of cells growth by colorimetric (SRB) assay, IGROV-1; details: for CC50: read-out: IGROV LC50, SRB assay, 48 hours exposure
Summary of the method: as §1

[5] = tested on: HeLa-APL; assay: Inhibition of cells growth by colorimetric (SRB) assay, HeLa-APL
Summary of the method: as §1

[6] = tested on: DU-145; assay: Inhibition of cells growth by colorimetric (SRB) assay, DU-145
Summary of the method: as §1

[7] = tested on: A-549; assay: Inhibition of cells growth by colorimetric (SRB) assay, A-549; details: for CC50: read-out: A-549 LC50, SRB assay, 48 hours exposure
Summary of the method: as §1

[8] = tested on: PANC-1; assay: Inhibition of cells growth by colorimetric (SRB) assay, PANC-1; details: for CC50: read-out: PANC-1 LC50, SRB assay, 48 hours exposure
Summary of the method: as §1

[9] = tested on: IGROV-ET; assay: Inhibition of cells growth by colorimetric (SRB) assay, IGROV-ET; details: for CC50: read-out: IGROV-ET LC50, SRB assay, 48 hours exposure
Summary of the method: as §1

[10] = tested on: SK-BR-3; assay: Inhibition of cells growth by colorimetric (SRB) assay, SK-BR-3; details: for GI50 / CC50: Homo sapiens, SK-BR-3, 48 h; for GI50: read-out: SK-BR-3 GI50, SRB assay, 48 hours exposure; for CC50: read-out: SK-BR-3 LC50, SRB assay, 48 hours exposure; for SK-BR-3 TGI: SRB assay, 48 hours exposure
Summary of the method: as §1

[11] = tested on: LoVo; assay: Inhibition of cells growth by colorimetric (SRB) assay, LoVo; details: for CC50: read-out: LOVO LC50, SRB assay, 48 hours exposure
Summary of the method: as §1

[12] = tested on: LNCaP; assay: Inhibition of cells growth by colorimetric (SRB) assay, LNCaP
Summary of the method: as §1

[13] = tested on: K-562; assay: Inhibition of cells growth by colorimetric (SRB) assay, K-562; details: for CC50: read-out: K-562 LC50, SRB assay, 48 hours exposure
Summary of the method: as §1

[14] = tested on: HeLa; assay: Inhibition of cells growth by colorimetric (SRB) assay, HeLa; on HELA TGI: unit not given here
Summary of the method: as §1

CSc1nccc(-c2c3c(O)ccnc3n3c(N)nccc23)n1.Cl [Compound 97]
CC50 ([1]; Homo sapiens, HT-29, 48 h): 18.7 µM | HT-29 TGI ([1]; SRB assay, 48 hours exposure): 4.85E−06 | GI50 ([1]; read-out: HT-29 GI50, SRB assay, 48 hours exposure): 0.457 µM | CC50 ([2]; Homo sapiens, 48 h): 27.7 µM | LOVO-DOX TGI ([2]; SRB assay, 48 hours exposure): 1.93E−05 | GI50 ([2]; read-out: LOVO-DOX GI50, SRB assay, 48 hours exposure): 7.51 µM | CC50 ([3]; Homo sapiens, SK-MEL-28, 48 h): 18 µM | MEL-28 TGI ([3]; SRB assay, 48 hours exposure): 7.43E−06 | GI50 ([3]; read-out: MEL-28 GI50, SRB assay, 48 hours exposure): 3.08 µM | CC50 ([4]; Homo sapiens, IGROV-1, 48 h): 27 µM | IGROV TGI ([4]; SRB assay, 48 hours exposure): 3.10E−06 | GI50 ([4]; read-out: IGROV GI50, SRB assay, 48 hours exposure): 0.0931 µM | HELA-APL TGI ([5]; SRB assay, 48 hours exposure): 1.77E−07 | GI50 ([5]; read-out: HELA-APL GI50, SRB assay, 48 hours exposure): 0.0787 µM | CC50 ([5]; read-out: HELA-APL LC50, SRB assay, 48 hours exposure): 1.85 µM | DU-145 TGI ([6]; SRB assay, 48 hours exposure): 3.19E−06 | GI50 ([6]; read-out: DU-145 GI50, SRB assay, 48 hours exposure): 0.257 µM | CC50 ([6]; read-out: DU-145 LC50, SRB assay, 48 hours exposure): 12.8 µM | CC50 ([7]; Homo sapiens, A549, 48 h): 22.3 µM | A-549 TGI ([7]; SRB assay, 48 hours exposure): 4.55E−06 | GI50 ([7]; read-out: A-549 GI50, SRB assay, 48 hours exposure): 0.707 µM | CC50 ([8]; Homo sapiens, PANC-1, 48 h): 24.6 µM | PANC-1 TGI ([8]; SRB assay, 48 hours exposure): 9.98E−06 | GI50 ([8]; read-out: PANC-1 GI50, SRB assay, 48 hours exposure): 4.05 µM | CC50 ([9]; Homo sapiens, 48 h): 27.7 µM | IGROV-ET TGI ([9]; SRB assay, 48 hours exposure): 8.12E−06 | GI50 ([9]; read-out: IGROV-ET GI50, SRB assay, 48 hours exposure): 1.52 µM | GI50 [10]: 1.92 µM | CC50 [10]: 23.6 µM | SK-BR-3 TGI [10]: 7.37E−06 | CC50 ([11]; Homo sapiens, LoVo, 48 h): 27.7 µM | LOVO TGI ([11]; SRB assay, 48 hours exposure): 1.27E−05 | GI50 ([11]; read-out: LOVO GI50, SRB assay, 48 hours exposure): 5.07 µM | LN-caP TGI ([12]; SRB assay, 48 hours exposure): 2.88E−07 | GI50 ([12]; read-out: LN-caP GI50, SRB assay, 48 hours exposure): 0.109 µM | CC50 ([12]; read-out: LN-caP LC50, SRB assay, 48 hours exposure): 5.82 µM | CC50 ([13]; Homo sapiens, K562, 48 h): 24.4 µM | K-562 TGI ([13]; SRB assay, 48 hours exposure): 8.34E−06 | GI50 ([13]; read-out: K-562 GI50, SRB assay, 48 hours exposure): 2.85 µM | HELA TGI ([14]; SRB assay, 48 hours exposure): 1.28E−07 | GI50 ([14]; read-out: HELA GI50, SRB assay, 48 hours exposure): 0.0576 µM

CSc1nccc(-c2c3cc4ccccc4nc3n3c(N)nccc23)n1 [Compound 18a]
GI50 ([1]; Homo sapiens, HT-29, 48 h, read-out: HT-29 GI50, SRB assay, 48 hours exposure): 4.41 µM | CC50 ([1]; Homo sapiens, HT-29, 48 h): ≥ 27.9 µM | HT-29 TGI ([1]; SRB assay, 48 hours exposure): 1.67E−05 | GI50 ([2]; Homo sapiens, 48 h, read-out: LOVO-DOX GI50, SRB assay, 48 hours exposure): 3.1 µM | CC50 ([2]; Homo sapiens, 48 h): ≥ 27.9 µM | LOVO-DOX TGI ([2]; SRB assay, 48 hours exposure): 9.74E−06 | GI50 ([3]; Homo sapiens, SK-MEL-28, 48 h, read-out: MEL-28 GI50, SRB assay, 48 hours exposure): 4.97 µM | CC50 ([3]; Homo sapiens, SK-MEL-28, 48 h): ≥ 27.9 µM | MEL-28 TGI ([3]; SRB assay, 48 hours exposure): 1.20E−05 | GI50 ([4]; Homo sapiens, IGROV-1, 48 h, read-out: IGROV GI50, SRB assay, 48 hours exposure): 5.47 µM | CC50 ([4]; Homo sapiens, IGROV-1, 48 h): ≥ 27.9 µM | IGROV TGI ([4]; SRB assay, 48 hours exposure): 1.33E−05 | GI50 ([5]; Homo sapiens, 48 h, read-out: HELA-APL GI50, SRB assay, 48 hours exposure): 0.0569 µM | CC50 ([5]; Homo sapiens, 48 h, read-out: HELA-APL LC50, SRB assay, 48 hours exposure): 6.56 µM | HELA-APL TGI ([5]; SRB assay, 48 hours exposure): 8.31E−07 | GI50 ([6]; Homo sapiens, DU-145, 48 h, read-out: DU-145 GI50, SRB assay, 48 hours exposure): 4.27 µM | CC50 ([6]; Homo sapiens, DU-145, 48 h, read-out: DU-145 LC50, SRB assay, 48 hours exposure): 23.3 µM | DU-145 TGI ([6]; SRB assay, 48 hours exposure): 9.99E−06 | GI50 ([7]; Homo sapiens, A549, 48 h, read-out: A-549 GI50, SRB assay, 48 hours exposure): 7.31 µM | CC50 ([7]; Homo sapiens, A549, 48 h): ≥ 27.9 µM | A-549 TGI ([7]; SRB assay, 48 hours exposure): 1.66E−05 | GI50 ([8]; Homo sapiens, PANC-1, 48 h, read-out: PANC-1 GI50, SRB assay, 48 hours exposure): 6.53 µM | CC50 ([8]; Homo sapiens, PANC-1, 48 h): ≥ 27.9 µM | PANC-1 TGI ([8]; SRB assay, 48 hours exposure): 1.46E−05 | GI50 ([9]; Homo sapiens, 48 h, read-out: IGROV-ET GI50, SRB assay, 48 hours exposure): 7.06 µM | CC50 ([9]; Homo sapiens, 48 h): ≥ 27.9 µM | IGROV-ET TGI ([9]; SRB assay, 48 hours exposure): 1.53E−05 | GI50 [10]: 1.34 µM | CC50 [10]: ≥ 27.9 µM | SK-BR-3 TGI [10]: 4.94E−06 | GI50 ([11]; Homo sapiens, LoVo, 48 h, read-out: LOVO GI50, SRB assay, 48 hours exposure): 5.11 µM | CC50 ([11]; Homo sapiens, LoVo, 48 h): 17 µM | LOVO TGI ([11]; SRB assay, 48 hours exposure): 9.32E−06 | GI50 ([12]; Homo sapiens, LNCaP, 48 h, read-out: LN-caP GI50, SRB assay, 48 hours exposure): 3.49 µM | CC50 ([12]; Homo sapiens, LNCaP, 48 h, read-out: LN-caP LC50, SRB assay, 48 hours exposure): 15.3 µM | LN-caP TGI ([12]; SRB assay, 48 hours exposure): 7.31E−06 | GI50 ([13]; Homo sapiens, K562, 48 h, read-out: K-562 GI50, SRB assay, 48 hours exposure): 4.72 µM | CC50 ([13]; Homo sapiens, K562, 48 h): ≥ 27.9 µM | K-562 TGI ([13]; SRB assay, 48 hours exposure): 1.66E−05 | GI50 ([14]; Homo sapiens, HeLa, 48 h, read-out: HELA GI50, SRB assay, 48 hours exposure): 0.0449 µM | HELA TGI ([14]; SRB assay, 48 hours exposure): 3.68E−06
